Key:
Assay type in all cases: in vivo, C57BL/6 mice
[1] = system: Streptococcus pneumoniae-induced pulmonary fibrosis model; assay: Streptococcus pneumoniae-induced pulmonary fibrosis model; details: for Leucocyte / Lymphocyte / Neutrophil / Ashcroft scores: Streptococcus pneumoniae + bleomycin, 120 mg/kg/d intragastric, 14 days; for Leucocyte / Lymphocyte / Neutrophil: blood, Day 15, 3 times every day, from one week after model; for Ashcroft scores: lung tissue HE staining
[2] = system: novel coronavirus-induced pulmonary fibrosis model (COVID-19 novel coronavirus strains); assay: Novel coronavirus-induced pulmonary fibrosis model; details: 120 mg/kg/d intragastric, 14 days; for Ashcroft scores: novel coronavirus + bleomycin, lung tissue HE; for IL-1β / IL-6 / NF-κB / TNF-α: serum, COVID-19 novel coronavirus + bleomycin, from two weeks after model
Excerpt: (§1) Experimental method: an in-vivo novel coronavirus-induced pulmonary fibrosis model was established: C57BL/6 mice (with weights being 22-25 g) were randomly and evenly divided into a plurality of groups, including blank control group, model group, Nintedanib positive control group, hypoxanthine analogue A group, hypoxanthine analogue B group, hypoxanthine analogue C group, compound 1 group, a compound 2 group . . . compound 12 group, with 9 mice in each group. On Day 1, the mice in blank control group were instilled with normal saline nasally, and the mice in other groups were all infected with COVID-19 novel coronavirus strains (30 μL) through nasal instillation. On Day 2, the mice received 5 mg/kg bleomycin through tracheas to induce their pulmonary fibrosis. After the model was established for two weeks, the mice in each group were intragastrically administrated for intervention for consecutive 14 days; the mice in blank control group and model group intragastrically received the same dosage of normal saline as those in drug groups; the mice in Nintedanib positive control group received Nintedanib (120 mg/kg); the mice in hypoxanthine analogue A group, hypoxanthine analogue B group and hypoxanthine analogue C group respectively received hypoxanthine analogue A (120 mg/kg/d), hypoxanthine analogue B (120 mg/kg/d) and hypoxanthine analogue C (120 mg/kg/d); and the mice in compound 1 group, compound 2 group . . . compound 12 group respectively received compound 1 (120 mg/kg/d), compound 2 (120 mg/kg/d) . . . compound 12 (120 mg/kg/d) prepared in example 1. After administration for consecutive 14 days, the mice were observed every day, and their weights and death conditions were recorded. After administration, blood was taken from eyeballs for immediately detecting the expression levels of NF-κB, TNF-α, IL-1 and IL-6 in serum, and lung tissues were taken for HE detection and Ashcroft scoring.

[3] = system: bleomycin-induced pulmonary fibrosis model; assay: Comparison with comparative drugs: bleomycin-induced model, hydroxyproline and TGF-β; details: 120 mg/kg/d intragastric, twice every day, 14 days, from two weeks after model; Day 15
[4] = system: bleomycin-induced pulmonary fibrosis model; assay: Advanced pulmonary fibrosis: bleomycin-induced model, dosing from three weeks after modelling; details: for Leucocyte / Lymphocyte / Neutrophil / Ashcroft scores: advanced pulmonary fibrosis, 120 mg/kg/d intragastric, 14 days, from three weeks after model; for Leucocyte / Lymphocyte / Neutrophil: blood, Day 15, twice every day; for Ashcroft scores: lung tissue HE staining
[5] = system: influenza A virus-induced pulmonary fibrosis model (FM1 strain of influenza A (H1N1) virus); assay: Influenza A virus-induced pulmonary fibrosis model; details: 120 mg/kg/d intragastric, 14 days; for Ashcroft scores: influenza A virus + bleomycin, lung tissue HE; for IL-1β / IL-6 / NF-κB / TNF-α: serum, influenza A (H1N1) FM1 + bleomycin, from two weeks after model
Excerpt: as §1, with “an in-vivo influenza A virus-induced pulmonary fibrosis” for “an in-vivo novel coronavirus-induced pulmonary fibrosis”, “1 group, compound 2” for “1 group, a compound 2”, “infected with a FM1 strain of an influenza A (H1N1) virus 30 (μL) through nasal” for “infected with COVID-19 novel coronavirus strains (30 μL) through nasal”, “dosage of the normal saline” for “dosage of normal saline”

[6] = system: bleomycin-induced pulmonary fibrosis model; assay: Early pulmonary fibrosis: bleomycin-induced model, dosing from one week after modelling; details: for Leucocyte / Lymphocyte / Neutrophil / Ashcroft scores: early pulmonary fibrosis, 120 mg/kg/d intragastric, 14 days, from one week after model; for Leucocyte / Lymphocyte / Neutrophil: blood, Day 15, twice every day; for Ashcroft scores: lung tissue HE staining

Row | SMILES | Leucocyte [1] | Lymphocyte [1] | Neutrophil [1] | Ashcroft scores [1] | Ashcroft scores [2] | IL-1β [2] [pg/mL] | IL-6 [2] [pg/mL] | NF-κB [2] [pg/mL] | TNF-α [2] [pg/mL] | Hydroxyproline in bronchoalveolar lavage fluids [3] [µg/mg] | Hydroxyproline in lung tissues [3] [µg/mg] | TGF-β in bronchoalveolar lavage fluids [3] [µg/L] | TGF-β in lung tissues [3] [µg/L] | Leucocyte [4] | Lymphocyte [4] | Neutrophil [4] | Ashcroft scores [4] | Ashcroft scores [5] | IL-1β [5] [pg/mL] | IL-6 [5] [pg/mL] | further results
1 | CC(C)Oc1ncnc2c1N(C(C)C)CN2C(C)C [Compound 10] | 7.01 10^9/L | 7.33 10^9/L | 1.99 10^9/L | 1.38 | 1.67 | 38.1 | 67.5 | 26.5 | 68.9 | 0.74 ± 0.06 | 1.37 ± 0.08 | 4.21 ± 0.18 | 24.12 ± 2.25 | 4.26 10^9/L | 5.71 10^9/L | 1.38 10^9/L | 1.16 | 1.30 | 29.3 | 64.9 | NF-κB [5]: 27.7 pg/mL; TNF-α [5]: 89.6 pg/mL; Leucocyte [6]: 4.17 10^9/L; Lymphocyte [6]: 5.27 10^9/L; Neutrophil [6]: 1.21 10^9/L; Ashcroft scores [6]: 1.17
2 | COC(=O)c1ccc2c(c1)NC(=O)/C2=C(\Nc1ccc(N(C)C(=O)CN2CCN(C)CC2)cc1)c1ccccc1 [Nintedanib, reference compound] | 98.31 10^9/L | 87.43 10^9/L | 78.94 10^9/L | 4.55 | 6.04 | 561.2 | 523.7 | 732.7 | 539.8 | 1.25 ± 0.14 | 2.36 ± 0.12 | 7.11 ± 0.24 | 75.32 ± 7.51 | 46.09 10^9/L | 50.03 10^9/L | 40.99 10^9/L | 4.13 | 4.27 | 220.7 | 349.1 | inhibition (anti-inflammatory) effect on leucocytes, neutrophils and lymphocytes in blood ([1]; mice with Streptococcus pneumoniae-induced pulmonary fibrosis, result in words): obviously inferior; inhibition (anti-inflammatory) effect on leucocytes, neutrophils and lymphocytes in blood ([4]; mice with advanced pulmonary fibrosis, result in words): obviously inferior; NF-κB [5]: 625.2 pg/mL; TNF-α [5]: 243.6 pg/mL; Leucocyte [6]: 33.76 10^9/L; Lymphocyte [6]: 33.87 10^9/L; Neutrophil [6]: 31.32 10^9/L; Ashcroft scores [6]: 3.69; inhibition (anti-inflammatory) effect on leucocytes, neutrophils and lymphocytes in blood ([6]; mice with early pulmonary fibrosis, result in words): obviously inferior
3 | CC(C)n1cnc2c(=O)[nH]cnc21 [Compound 2] | 5.48 10^9/L | 5.95 10^9/L | 1.83 10^9/L | 1.09 | 1.12 | 35.1 | 66.0 | 23.5 | 64.8 | 0.74 ± 0.05 | 1.51 ± 0.08 | 4.02 ± 0.15 | 24.10 ± 2.14 | 4.16 10^9/L | 5.29 10^9/L | 1.26 10^9/L | 0.88 | 1.25 | 27.1 | 62.7 | NF-κB [5]: 25.5 pg/mL; TNF-α [5]: 87.3 pg/mL; Leucocyte [6]: 4.11 10^9/L; Lymphocyte [6]: 5.19 10^9/L; Neutrophil [6]: 1.04 10^9/L; Ashcroft scores [6]: 1.01
4 | CC(C)n1cnc2nc[nH]c(=O)c21 [Compound 6] | 5.91 10^9/L | 7.55 10^9/L | 1.88 10^9/L | 1.27 | 1.34 | 38.7 | 67.1 | 21.2 | 68.3 | 0.68 ± 0.07 | 1.46 ± 0.07 | 3.91 ± 0.18 | 24.18 ± 2.14 | 4.58 10^9/L | 5.94 10^9/L | 1.59 10^9/L | 1.19 | 1.26 | 28.5 | 66.1 | NF-κB [5]: 27.8 pg/mL; TNF-α [5]: 90.3 pg/mL; Leucocyte [6]: 4.25 10^9/L; Lymphocyte [6]: 5.49 10^9/L; Neutrophil [6]: 1.19 10^9/L; Ashcroft scores [6]: 1.08
5 | CCC(=O)Oc1ncnc2c1ncn2C(C)C [Compound 12] | 7.04 10^9/L | 7.23 10^9/L | 1.97 10^9/L | 1.39 | 1.18 | 38.9 | 66.8 | 27.3 | 68.4 | 0.76 ± 0.08 | 1.41 ± 0.12 | 4.06 ± 0.15 | 23.91 ± 2.38 | 4.04 10^9/L | 5.65 10^9/L | 1.23 10^9/L | 1.13 | 1.31 | 29.9 | 64.7 | NF-κB [5]: 28.1 pg/mL; TNF-α [5]: 90.8 pg/mL; Leucocyte [6]: 4.21 10^9/L; Lymphocyte [6]: 5.24 10^9/L; Neutrophil [6]: 1.18 10^9/L; Ashcroft scores [6]: 1.14
6 | CCCOc1ncnc2c1ncn2C(C)C [Compound 9] | 6.73 10^9/L | 7.11 10^9/L | 1.89 10^9/L | 1.33 | 1.34 | 39.6 | 69.1 | 22.9 | 68.8 | 0.73 ± 0.09 | 1.41 ± 0.09 | 4.05 ± 0.14 | 25.65 ± 2.16 | 4.69 10^9/L | 5.69 10^9/L | 1.46 10^9/L | 1.11 | 1.33 | 28.4 | 65.8 | NF-κB [5]: 27.1 pg/mL; TNF-α [5]: 91.1 pg/mL; Leucocyte [6]: 4.14 10^9/L; Lymphocyte [6]: 5.23 10^9/L; Neutrophil [6]: 1.33 10^9/L; Ashcroft scores [6]: 1.12

Reference: patent publication US20250188082A1, “Use of Hypoxanthine Compound In Preparation of Drug For Treating Pulmonary Fibrosis” (Sichuan Yiasuo Pharmaceutical Technology Co., Ltd., priority 2022, published 2025)
